# From ChEMBL document CHEMBL1149544, “R-(-)-N-alkyl-11-hydroxy-10-hydroxymethyl- and 10-methyl-aporphines as 5-HT1A receptor ligands” (Bioorg Med Chem Lett, 2007)
# Key:
# [1] = target: T1, 5-hydroxytryptamine receptor 1A (Rattus norvegicus, UniProt P19327); test: Displacement of [3H]8-OH-DPAT from rat 5HT1A receptor
# T1 sequence (P19327 whole entry): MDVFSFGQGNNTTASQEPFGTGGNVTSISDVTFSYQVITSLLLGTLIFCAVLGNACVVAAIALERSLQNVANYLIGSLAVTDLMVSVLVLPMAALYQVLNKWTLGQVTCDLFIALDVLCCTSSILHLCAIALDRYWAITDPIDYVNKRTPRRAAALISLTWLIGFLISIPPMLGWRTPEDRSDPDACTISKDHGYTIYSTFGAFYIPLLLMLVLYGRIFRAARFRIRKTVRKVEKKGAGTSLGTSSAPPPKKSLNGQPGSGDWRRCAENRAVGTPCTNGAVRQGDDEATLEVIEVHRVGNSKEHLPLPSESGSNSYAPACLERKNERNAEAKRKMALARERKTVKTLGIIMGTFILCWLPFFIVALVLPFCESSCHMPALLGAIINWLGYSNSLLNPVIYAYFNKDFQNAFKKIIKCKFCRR
# D(1A) dopamine receptor = D(1A) dopamine receptor (Rattus norvegicus, UniProt P18901); test: Displacement of [3H]SCH-23390 from rat dopamine D1 receptor
# D(2) dopamine receptor = D(2) dopamine receptor (Rattus norvegicus, UniProt P61169); test: Displacement of [3H]nemonapride from rat dopamine D2 receptor
# Rattus norvegicus = organism: Rattus norvegicus; test: Selectivity for rat 5HT1A over rat 5HT2A
# [2] = target: 5-hydroxytryptamine receptor 2A (Rattus norvegicus, UniProt P14842); test: Displacement of [3H]ketanserin from rat 5HT2A receptor
# Chain of 5-hydroxytryptamine receptor 2A (P14842 whole entry): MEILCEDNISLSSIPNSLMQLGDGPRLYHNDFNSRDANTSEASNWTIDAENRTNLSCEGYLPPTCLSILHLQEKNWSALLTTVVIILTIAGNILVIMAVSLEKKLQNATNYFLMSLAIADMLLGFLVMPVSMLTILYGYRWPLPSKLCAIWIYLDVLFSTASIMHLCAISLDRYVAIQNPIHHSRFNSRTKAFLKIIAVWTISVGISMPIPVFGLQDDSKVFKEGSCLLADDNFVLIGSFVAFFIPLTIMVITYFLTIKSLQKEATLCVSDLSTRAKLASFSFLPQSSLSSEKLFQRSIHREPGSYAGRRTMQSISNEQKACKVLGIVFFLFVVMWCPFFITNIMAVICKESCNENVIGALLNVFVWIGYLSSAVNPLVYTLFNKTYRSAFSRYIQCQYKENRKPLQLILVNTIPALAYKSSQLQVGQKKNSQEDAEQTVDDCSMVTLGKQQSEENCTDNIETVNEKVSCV
# Chain of D(2) dopamine receptor (P61169 whole entry): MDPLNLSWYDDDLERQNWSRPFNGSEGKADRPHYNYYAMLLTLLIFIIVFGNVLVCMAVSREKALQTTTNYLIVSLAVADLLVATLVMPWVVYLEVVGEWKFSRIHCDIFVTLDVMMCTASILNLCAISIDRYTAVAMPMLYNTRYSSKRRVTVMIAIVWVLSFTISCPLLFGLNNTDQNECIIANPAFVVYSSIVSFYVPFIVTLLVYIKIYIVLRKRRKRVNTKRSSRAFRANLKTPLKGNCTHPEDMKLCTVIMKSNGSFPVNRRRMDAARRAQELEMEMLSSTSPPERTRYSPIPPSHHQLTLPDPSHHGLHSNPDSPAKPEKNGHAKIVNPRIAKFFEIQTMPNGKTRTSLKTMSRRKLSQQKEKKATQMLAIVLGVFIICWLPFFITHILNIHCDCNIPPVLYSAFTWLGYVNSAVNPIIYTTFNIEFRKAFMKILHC
# Chain of D(1A) dopamine receptor (P18901 whole entry): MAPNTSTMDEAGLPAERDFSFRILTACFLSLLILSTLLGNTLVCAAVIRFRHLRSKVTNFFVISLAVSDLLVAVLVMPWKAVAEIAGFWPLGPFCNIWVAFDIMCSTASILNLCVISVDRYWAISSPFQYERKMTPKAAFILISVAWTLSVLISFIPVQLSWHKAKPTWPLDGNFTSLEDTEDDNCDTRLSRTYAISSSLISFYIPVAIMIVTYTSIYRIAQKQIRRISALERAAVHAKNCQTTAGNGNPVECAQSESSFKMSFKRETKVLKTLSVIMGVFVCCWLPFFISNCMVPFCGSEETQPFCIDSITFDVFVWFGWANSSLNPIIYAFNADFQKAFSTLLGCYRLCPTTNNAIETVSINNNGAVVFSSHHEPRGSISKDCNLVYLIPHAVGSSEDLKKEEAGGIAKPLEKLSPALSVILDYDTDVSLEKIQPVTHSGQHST
structure (smiles),measurement,setting,value
CCCN1CCc2cc(OC)cc3c2[C@H]1Cc1ccc(C)c(O)c1-3,Ki,[1],480 nM
same,Ki,D(1A) dopamine receptor,2790 nM
same,Ki,D(2) dopamine receptor,1350 nM
CN1CCc2cccc3c2[C@H]1Cc1ccc(CO)c(O)c1-3,Ki,[1],2.4 nM
same,Ratio Ki,Rattus norvegicus,57
same,Ki,D(1A) dopamine receptor,1390 nM
same,Ki,[2],137 nM
same,Ki,D(2) dopamine receptor,7000 nM
CCCN1CCc2cccc3c2[C@H]1Cc1ccc(CO)c(O)c1-3,Ki,[1],375 nM
same,Ki,D(1A) dopamine receptor,1980 nM
same,Ki,D(2) dopamine receptor,6060 nM
Cc1ccc2c(c1O)-c1cccc3c1[C@@H](C2)N(C)CC3,Ki,[1],216 nM
same,Ki,D(1A) dopamine receptor,9650 nM
same,Ki,D(2) dopamine receptor,11500 nM
COc1cc2c3c(c1)-c1c(ccc(C)c1O)C[C@H]3N(C)CC2,Ki,[1],21.5 nM
same,Ratio Ki,Rattus norvegicus,108
same,Ki,D(1A) dopamine receptor,1780 nM
same,Ki,[2],271 nM
same,Ki,D(2) dopamine receptor,3760 nM
